`CCN1CC=C(c2ccccc2)CC1` showed a logP of 3.18.
For `OCCN1CC=C(c2ccccc2)CC1`, the logP was 2.
With `C1=C(c2ccccc2)CCN(CCc2ccccc2)C1` the logP was 3.98.
For `Cc1ccccc1C1=CCN(C)CC1`, the logP was 3.1.
`CN1CC=C(c2ccc(N)cc2)CC1` gave a logP of 1.48.
Work on `CN1CC=C(c2cccc(N)c2)CC1` yielded a logP of 1.47.
Compound `CN1CC=C(c2cccs2)CC1` has a logP of 2.51.
`CC1=C(c2ccccc2)CCN(C)C1` gave a logP of 3.18.
For `CN1CC=C(c2ccc(Cl)cc2)CC1`, the logP was 3.32.
Work on `Fc1ccc(C2=CCNCC2)cc1` yielded a logP of 2.37.
Work on `CN1CC=C(c2ccncc2)CC1` yielded a logP of 1.25.
For `C1=C(c2ccccc2)CCNC1`, the logP was 1.99.

From the SangsterLogP compilation
